Data: patent US10501479B2, “Benzenesulfonyl-asymmetric ureas and medical uses thereof” (HELSINN HEALTHCARE SA, priority 2016, dated 2019)
pEC50, pIC50: −log10 of the molar value.

What was measured:
[1] = Animal PK study in mouse via i.v., p.o. and s.c. administration; format: in vivo; conditions: for Vd / clearance / half-life: plasma; for clearance: read-out: PK CL i.v.
How it was run: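 Plasma drug levels were measured by LC-MS/MS after acetonitrile precipitation, with blood drawn up to 24 h post-dose (from 0.083 h i.v./s.c., 0.25 h oral) in mice or rats. Animals received one dose by gavage in DMSO/methylcellulose, or by tail-vein or subcutaneous injection in DMSO/HP-β-cyclodextrin.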

[2] = Metabolic stability in mouse liver microsomes; format: in vitro ADME
How it was run: (§1)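 Loss of parent over time in microsomal incubations at 37 °C with NADPH regeneration, sampled up to 90 min and read by LC-MS/MS.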

[3] = Plasma protein binding (PPB), mouse; format: in vitro ADME
[4] = Plasma protein binding (PPB), human; format: in vitro ADME; conditions: read-out: PPB (H) (converted)
[5] = biological target: T1, GHSR-1a (HEK293/GHSR1a cell line) (Homo sapiens, UniProt Q92847); experiment: Ghrelin antagonist potency (IC50) with calcium FLIPR assay, ghrelin 10 nM; format: cell-based; conditions: HEK293/GHSR1a, ghrelin 10 nM, read-out: Activity IC50 (ghrelin antagonist potency)
T1 construct: expressed in transfected cells; host or cells: HEK293/GHSR1a cell line
How it was run: (§2)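 In this assay, compound alone assesses agonism, while compound co-added with ghrelin at 10 nM assesses antagonism. In both modes the calcium-dye signal is tracked for 2 min from t=20 sec.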

[6] = biological target: T1, GHSR-1a (HEK293/GHSR1a cell line); experiment: Ghrelin agonist potency (EC50) with calcium FLIPR assay; format: cell-based; conditions: HEK293/GHSR1a, read-out: Activity EC50/EMax: EC50 (ghrelin agonist potency)
How it was run: as §2

[7] = biological target: T2, recombinant human ghrelin receptor (HEK293/GRLN) (Homo sapiens, UniProt Q92847); experiment: Ghrelin inverse agonist potency (EC50) with IP-1 (IP-One HTRF) assay; format: cell-based; conditions: IP-1 assay, HEK293/GRLN; read-out: Activity EC50 (ghrelin inverse agonist potency)
T2 construct: expressed in transfected cells
How it was run: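 IP-1 accumulation was measured by HTRF (IP1-d2/Tb-cryptate, 620/665 nm read after 1 hour at room temperature) following 1 hour of compound treatment at 37° C. Cells were HEK293 stably expressing human ghrelin receptor, plated a day earlier on Matrigel. Inverse agonist potency was reported as EC50.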

[8] = Metabolic stability in human liver microsomes; format: in vitro ADME
How it was run: as §1

[9] = Animal PK study in rat via i.v., p.o. and s.c. administration; format: in vivo; conditions: rat, i.p.
[10] = iv, 5 mg/kg, i.v., read-out: PK t1/2 i.v.
[11] = po, 10 mg/kg, p.o., read-out: PK t1/2 p.o.

T2 sequence (Q92847 whole entry): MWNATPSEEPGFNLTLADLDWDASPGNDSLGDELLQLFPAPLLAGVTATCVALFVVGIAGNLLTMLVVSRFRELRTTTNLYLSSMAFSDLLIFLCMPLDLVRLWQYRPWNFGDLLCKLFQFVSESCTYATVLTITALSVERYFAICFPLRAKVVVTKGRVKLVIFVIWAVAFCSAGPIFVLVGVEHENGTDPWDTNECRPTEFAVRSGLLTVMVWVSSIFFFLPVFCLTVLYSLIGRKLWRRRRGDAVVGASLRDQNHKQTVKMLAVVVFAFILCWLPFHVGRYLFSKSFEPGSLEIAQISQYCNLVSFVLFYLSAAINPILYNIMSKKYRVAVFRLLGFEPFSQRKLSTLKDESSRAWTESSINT
T1 sequence (Q92847 whole entry): as above

| SMILES | PK F [1] | PK CL p.o. ([1]; p.o.) | PK Vd p.o. ([1]; p.o.) | Vd ([1]; iv, 5 mg/kg) | clearance ([1]; iv, 5 mg/kg, i.v.) | half-life [1, 10] | half-life [1, 11] | Metabolic Stability Study M = mouse [2] | fraction unbound [3] | fraction unbound [4] | pIC50 [5] | pEC50 [6] | pEC50 [7] | Metabolic Stability Study H = human [8] | half-life ([9]; plasma, ip, read-out: PK t1/2 i.p. (R)) | PK CL i.p. (R) [9] | PK Vd i.p. (R) [9] |
| --- | --- | --- | --- | --- | --- | --- | --- | --- | --- | --- | --- | --- | --- | --- | --- | --- | --- |
| COc1cc(S(=O)(=O)Cc2ccc3c(c2)CN(C)C3)ccc1NC(=O)NC(C)c1ccccc1 (stereo not drawn) [H1388, 1-(2-methoxy-4-(((2-methylisoindolin-5-yl)methyl)sulfonyl)phenyl)-3-(1-phenylethyl)urea] | 11.3% | 675 mL/min/kg | 86.8 L/kg | 6.3 L/kg | 77.7 mL/min/kg | 0.93 h | 1.49 h | 42.4 µL/min/mg | 0.079 | 0.031 | 7.99 | < 4.52 | 8.34 | 58.1 µL/min/mg |  |  |  |
| COc1cc(S(=O)(=O)Cc2ccc3c(c2)CNC3)ccc1NC(=O)NC(C)c1cccc(Cl)c1Cl.Cl (stereo not drawn) [H1421, 1-(1-(2,3-dichlorophenyl)ethyl)-3-(4-((isoindolin-5-ylmethyl)sulfonyl)-2-methoxyphenyl)urea] |  |  |  |  |  |  |  | 38.8 µL/min/mg | 0.0034 | 0.0037 | 8.74 | < 4.30 | 9.40 | 13.2 µL/min/mg | 19 h | 32.7 mL/min/kg | 54.56 L/kg |
| C[C@H](NC(=O)Nc1ccc2c(c1)CC(c1ccc3c(c1)CNC3)S2(=O)=O)c1ccccc1 (stereo partly drawn) [H1264, 1-(2-(isoindolin-5-yl)-1,1-dioxido-2,3-dihydrobenzo[b]thiophen-5-yl)-3-((S)-1-phenylethyl)urea] | 0.36% |  | 627.9 L/kg | 4.83 L/kg | 48.2 mL/min/kg | 1.16 h | 0.64 h | H < 10 M < 10 R = not reported D = not reported μL/min/mg | 0.185 | 0.221 | 8.36 |  |  | H < 10 M < 10 R = not reported D = not reported μL/min/mg |  |  |  |
| CC(NC(=O)Nc1ccc(S(=O)(=O)Cc2ccc3c(c2)CNC3)cc1)c1ccc(F)cc1 (stereo not drawn) [H1262, 1-(1-(4-fluorophenyl)ethyl)-3-(4-((isoindolin-5-ylmethyl)sulfonyl)phenyl)urea] | 1.13% | 1847 mL/min/kg | 307 L/kg | 1.69 L/kg | 21.8 mL/min/kg | 0.89 h | 1.92 h | 11.2 µL/min/mg | 0.05 | 0.099 | 7.97 | < 4.52 | 8.12 | 18.2 µL/min/mg |  |  |  |
| COc1ccc([C@@H](C)NC(=O)Nc2ccc(S(=O)(=O)Cc3ccc4c(c3)CCN(C)C4)cc2)c(Cl)c1Cl [H1417, (R)-1-(1-(2,3-dichloro-4-methoxyphenyl)ethyl)-3-(4-(((2-methyl-1,2,3,4-tetrahydroisoquinolin-6-yl)methyl)sulfonyl)phenyl)urea] | 11.80% | 226.8 mL/min/kg | 24.97 L/kg | 4.74 L/kg | 26.2 mL/min/kg | 2.09 h | 1.27 h | 53.4 µL/min/mg | 0.0012 | 0.0015 | 7.35 | < 4.52 | 8.01 | 48.9 µL/min/mg |  |  |  |
